Source: patent publication US20210094971A1, “HETEROCYCLIC COMPOUNDS” (Hoffmann-La Roche Inc., priority 2019, published 2021)

Molecular target: T1, MAGL (Homo sapiens, UniProt Q99685)
T1 sequence (Q99685 1-303): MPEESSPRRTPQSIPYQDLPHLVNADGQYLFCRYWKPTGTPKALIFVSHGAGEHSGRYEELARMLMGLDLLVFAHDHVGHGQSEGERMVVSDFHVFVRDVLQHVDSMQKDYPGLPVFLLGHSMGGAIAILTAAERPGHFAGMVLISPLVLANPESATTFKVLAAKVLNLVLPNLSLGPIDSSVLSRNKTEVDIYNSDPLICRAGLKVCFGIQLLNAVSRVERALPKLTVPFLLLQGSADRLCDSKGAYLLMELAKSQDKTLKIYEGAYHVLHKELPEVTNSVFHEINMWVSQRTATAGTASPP
Test: 2-AG assay (MAGL inhibitory activity, hydrolysis of 2-arachidonoylglycerol followed by mass spectrometry)
Assay type: biochemical
Settings: 50 pM MAGL, 8 μM 2-arachidonoylglycerol, 15 min pre-incubation, 30 min incubation at RT
Method: Compounds were profiled for MAGL inhibitory activity by determining the enzymatic activity by following the hydrolysis of the natural substrate 2-arachidonoylglycerol resulting in arachidonic acid, which can be followed by mass spectrometry. This assay is hereinafter abbreviated “2-AG assay”.
The 2-AG assay was carried out in 384 well assay plates (PP, Greiner Cat# 784201) in a total volume of 20 μL. Compound dilutions were made in 100% DMSO (VWR Chemicals 23500.297) in a polypropylene plate in 3-fold dilution steps to give a final concentration range in the assay from 12.5 μM to 0.8 pM. 0.25 μL compound dilutions (100% DMSO) were added to 9 μL MAGL in assay buffer (50 mM TRIS (GIBCO, 15567-027), 1 mM EDTA (Fluka, 03690-100 ml), 0.01% (v/v) Tween. After shaking, the plate was incubated for 15 min at RT. To start the reaction, 10 μL 2-arachidonoylglycerol in assay buffer was added. The final concentrations in the assay was 50 pM MAGL and 8 μM 2-arachidonoylglyerol. After shaking and 30 min incubation at RT, the reaction was quenched by the addition of 40 μL of acetonitrile containing 4 μM of d8-arachidonic acid. The amount of arachidonic acid was traced by an online SPE system (Agilent Rapidfire) coupled to a triple quadrupole mass spectrometer (Agilent 6460). A C18 SPE cartridge (G9205A) was used in an acetonitrile/water liquid setup. The mass spectrometer was operated in negative electrospray mode following the mass transitions 303.1→259.1 for arachidonic acid and 311.1→267.0 for d8-arachidonic acid. The activity of the compounds was calculated based on the ratio of intensities [arachidonic acid/d8-arachidonic acid].

Row | Compound | IC50
1 | (4aR,8aS)-6-[rel-(1R,4R,5S)-5- [(5-chloro-4-cyclopropyl-2- pyridyl)methoxy]-2- azabicyclo[2.2.1]heptane-2- carbonyl]-4,4a,5,7,8,8a- hexahydropyrido[4,3- b][1,4]oxazin-3-one [Example 10] | 16.2 nM
2 | O=C1CO[C@H]2CCN(C(=O)N3CC4CC(C3)C4OCc3ccc(C(F)(F)F)cc3F)C[C@H]2N1 (stereo partly drawn) [Example 22, (4aR,8aS)-6-[6-[[2-fluoro-4-(trifluoromethyl)phenyl]methoxy]-3-azabicyclo[3.1.1]heptane-3-carbonyl]-4,4a,5,7,8,8a-hexahydropyrido[4,3-b][1,4]oxazin-3-one] | 217 nM
3 | O=C1CO[C@H]2CCN(C(=O)N3C[C@@H]4C[C@H](OCc5ccc(C(F)(F)F)cc5F)[C@H]3C4)C[C@H]2N1 (relative stereo) [Example 18, (4aR,8aS)-6-[rel-(1R,4S,6S)-6-[[2-fluoro-4-(trifluoromethyl)phenyl]methoxy]-2-azabicyclo[2.2.1]heptane-2-carbonyl]-4,4a,5,7,8,8a-hexahydropyrido[4,3-b][1,4]oxazin-3-one] | 1050 nM
4 | (4aR,8aS)-6-[rel-(1R,4R,5S)-5- [[2-fluoro-4- (trifluoromethyl)phenyl]methoxy]- 2-azabicyclo[2.2.1]heptane-2- carbonyl]-4,4a,5,7,8,8a- hexahydropyrido[4,3- b][1,4]oxazin-3-one [Example 20] | 9.7 nM
5 | O=C1CO[C@H]2CCN(C(=O)N3C[C@@H]4[C@@H](COc5ccc(F)cc5Cl)[C@@H]4C3)C[C@H]2N1 [Example 12, (4aR,8aS)-6-[(1R,5S,6r)-6-[(2-chloro-4-fluoro-phenoxy)methyl]-3-azabicyclo[3.1.0]hexane-3-carbonyl]-4,4a,5,7,8,8a-hexahydropyrido[4,3-b][1,4]oxazin-3-one] | 6.3 nM
6 | O=C1CO[C@H]2CCN(C(=O)N3CC4CC(OCc5ccc(F)cc5Cl)CC4C3)C[C@H]2N1 (stereo partly drawn) [Example 15, (4aR,8aS)-6-[5-[(2-chloro-4-fluoro-phenyl)methoxy]-3,3a,4,5,6,6a-hexahydro-1H-cyclopenta[c]pyrrole-2-carbonyl]-4,4a,5,7,8,8a-hexahydropyrido[4,3-b][1,4]oxazin-3-one] | 11 nM
7 | O=C1CO[C@H]2CCN(C(=O)N3CC4CC(Oc5ccc(F)cc5Cl)CC4C3)C[C@H]2N1 (stereo partly drawn) [Example 14, (4aR,8aS)-6-[5-(2-chloro-4-fluoro-phenoxy)-3,3a,4,5,6,6a-hexahydro-1H-cyclopenta[c]pyrrole-2-carbonyl]-4,4a,5,7,8,8a-hexahydropyrido[4,3-b][1,4]oxazin-3-one] | 3.5 nM
8 | O=C1CO[C@H]2CCN(C(=O)N3C[C@@H]4[C@H](C3)[C@H]4c3ccn(-c4ccc(F)c(C(F)(F)F)c4)n3)C[C@H]2N1 [Example 7, (4aR,8aS)-6-[(1R,5S,6r)-6-[1-[4-fluoro-3-(trifluoromethyl)phenyl]pyrazol-3-yl]-3-azabicyclo[3.1.0]hexane-3-carbonyl]-4,4a,5,7,8,8a-hexahydropyrido[4,3-b][1,4]oxazin-3-one] | 45.3 nM
9 | (4aR,8aS)-6-[rel-(1R,4R,5S)-5- [(5-chloro-4-cyclopropyl-2- pyridyl)methoxy]-2- azabicyclo[2.2.1]heptane-2- carbonyl]-4,4a,5,7,8,8a- hexahydropyrido[4,3- b][l,4]oxazin-3-one [Example 11] | 82.5 nM
10 | O=C1CO[C@H]2CCN(C(=O)N3C[C@H]4C[C@@H]3C[C@@H]4OCc3cc4c(cn3)CCCC4)C[C@H]2N1 (relative stereo) [Example 9, (4aR,8aS)-6-[rel-(1R,4R,5S)-5-(5,6,7,8-tetrahydroisoquinolin-3-ylmethoxy)-2-azabicyclo[2.2.1]heptane-2-carbonyl]-4,4a,5,7,8,8a-hexahydropyrido[4,3-b][1,4]oxazin-3-one] | 76 nM
